For 16 compounds, GI50 and TGI results are on record in PubChem BioAssay (NCI).

Assay in all cases: NCI anticancer screen, dose series, 48 h
Assay [1] deals with CAKI-1 renal.
Assay [2] deals with HCT-15 colon.
In assay [3] the test system is HL-60(TB) leukemia.
For assay [4], the system named is HS 578T breast.
Assay [5] deals with HT29 colon.
Assay [6] deals with IGROV1 ovarian.
Assay [7] deals with KM12 colon.
Assay [8] has as its system SF-539 CNS.
For assay [9], the system named is SK-MEL-28 melanoma.
The subject of assay [10] is U251 CNS.

SMILES strings stand for the structures. Several values for one entry are separate records, joined by “and”; a condition that tells them apart may be missing. Equal entries are not always repeated.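 Test compounds were applied to cells in 96-well plates for 48 hours at 5 doses. Abbreviation: GI50, concentration required for 50% inhibition of growth. TGI is the concentration that stops growth completely.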 Where only a bound is given, the exact number is not on record here.

Consider `COc1cccc(-c2cc(-c3ccc(Nc4nc(Nc5ccc(Cl)cc5)nc(Nc5ccc(Cl)cc5)n4)cc3)nc(N)c2C#N)c1`, for which the GI50 was 1.23 µM in assay [1]; 2.46 µM in [2]; 0.838 µM in assay [3]; 2.66 µM in assay [4]; 3.96 µM in [5]; 1.67 µM in [6]. The GI50 was 2.35 µM in assay [7], 1.69 µM in assay [8], 1.9 µM in assay [9] and 3.76 µM in [10]. Besides, the TGI in assay [1] was 5.09 µM; in assay [2] it was greater than 24.2 µM; in assay [3] it was 8.23 µM; in assay [4], 11.2 µM; in [5], 35.8 µM; in assay [6] it was 4.62 µM. For the same compound, the TGI was 11.1 µM in assay [7], 4.1 µM in assay [8], 3.98 µM in assay [9] and greater than 37.5 µM in assay [10].
Regarding `CCCN1CCCC(c2ccc(Nc3nc(Nc4cc(F)ccc4C(N)=O)c4cc[nH]c4n3)c(OC)c2)C1` (stereo unspecified), the GI50 in assay [1] is 3.17 µM; in assay [2], 0.437 µM; in [3], 0.0156 µM; in [4], 3.41 µM; in assay [5], 0.0108 µM; in assay [6], 1.47 µM. Also, the GI50 in assay [7] is 2.72 µM; in [8] it was 2.14 µM; in assay [9], 3.49 µM; in assay [10] it was 2.57 µM. Moreover, the TGI in [1] was determined as 8.63 µM; in assay [2] it was 5.47 µM; in assay [3], 4.82 µM; in assay [4], 12.3 µM; in assay [5], 3.15 µM; in [6], 6.12 µM. The TGI was 5.86 µM in assay [7], 6.05 µM in [8], 6.93 µM in assay [9] and 5.58 µM in [10].
On to `O=C(/C=C/c1ccccc1)c1ccccn1`, for which the TGI in [1] is 33.2 µM and 64.4 µM; in assay [2], 24.9 µM and 50 µM; in [3], 53.6 µM and 84.8 µM; in assay [4], 77.3 µM; in assay [5], 28.9 µM and 48.3 µM; in assay [6], 22.8 µM and 37.9 µM. Moreover, the TGI was 34.2 µM and 28.5 µM in assay [7]; 42.4 µM in [8]; 40.7 µM and 81.5 µM in [9]; 30.5 µM and 35.9 µM in assay [10]. The GI50 in assay [3] was 2.55 µM and 16.4 µM.
As for `O=c1[nH]c(-c2ccncc2)nc2sc3c(c12)CCCCCC3`, the GI50 in [1], in assay [2], in [3], in assay [4], in [5] and in assay [6] was greater than 100 µM each time. Moreover, the GI50 in assay [7], in [8], in assay [9] and in assay [10] was greater than 100 µM throughout. Also, the TGI in assay [1], in assay [2], in [3], in [4], in assay [5] and in [6] was greater than 100 µM in each case. The TGI in assay [7], in assay [8], in [9] and in assay [10] was greater than 100 µM each time.
Regarding `C/C(=N\NC(N)=O)C(CN1CCOCC1)C(c1ccccc1)c1c(O)c2ccccc2oc1=O` (stereo unspecified), the TGI in assay [1], in assay [2], in [3], in assay [4], in assay [5] and in assay [6] was greater than 100 µM each time. Besides, the TGI in assay [7], in assay [8], in assay [9] and in assay [10] was greater than 100 µM throughout.
Take `CC(=O)Nc1ccc(S(=O)(=O)N2C(=O)CCC2C(=O)Nc2ccccc2)cc1` (stereo unspecified): the GI50 in [1] is 0.46 µM; in assay [2] it was 0.293 µM; in [3], 1.64 µM; in assay [4], 2.71 µM; in assay [5] it was 2.06 µM; in assay [6], 2.32 µM. Besides, the GI50 was 0.214 µM in assay [7], 0.542 µM in assay [8], 1.79 µM in assay [9] and 1.59 µM in [10]. The TGI was found to be 17.5 µM in [1]; 14.8 µM in assay [2]; 15.2 µM in assay [3]; 36.2 µM in assay [4]; 19.4 µM in [5]; 26.9 µM in assay [6]. For the same compound, the TGI was 11.3 µM in assay [7], 4.4 µM in assay [8], 18.1 µM in assay [9] and 13.3 µM in assay [10].
Regarding `Nc1nc(-c2ccccn2)c(-c2ccc3ncccc3n2)s1`, the GI50 in [1], in assay [2], in assay [3], in assay [4], in assay [5] and in assay [6] was greater than 25 µM throughout. For the same compound, the GI50 in [7], in assay [8], in assay [9] and in assay [10] was greater than 25 µM each time. Moreover, the TGI in assay [1], in assay [2], in assay [3], in assay [4], in assay [5] and in assay [6] was greater than 25 µM in each case. The TGI in [7], in assay [8], in assay [9] and in assay [10] was greater than 25 µM throughout.
Turning to `CC(C)OC(=O)OCOP(=O)(OCOC(=O)OC(C)C)C1CCCN(O)C1=O` (stereo unspecified), the GI50 in [1] is 3.55 µM; in [2] it was 1.85 µM; in [3], 2.48 µM; in assay [4], 0.586 µM; in assay [5], 0.571 µM; in assay [6], 0.565 µM. Also, the GI50 in assay [7] was 0.879 µM; in [8] it was 5.79 µM; in assay [9], 0.739 µM; in assay [10], 1.76 µM. In addition, the TGI in assay [1] was greater than 100 µM; in assay [2], greater than 100 µM; in assay [3], greater than 100 µM; in assay [4] it was 6.56 µM; in assay [5], greater than 100 µM; in assay [6], 12.6 µM. In addition, the TGI in [7] was greater than 100 µM; in assay [8] it was greater than 100 µM; in assay [9], 7.83 µM; in [10] it was greater than 100 µM.
Turning to `CC1(C)CC[C@]2(C(=O)O)CC[C@]3(C)C(=CC[C@@H]4[C@@]5(C)C/C(=C/c6cccnc6)[C@H](O)C(C)(C)[C@@H]5CC[C@]43C)[C@@H]2C1`, the GI50 in [1] is 10.2 µM; in assay [2], 3.85 µM; in assay [3], 2.12 µM; in [4], 21.8 µM; in assay [5], 8.78 µM; in assay [6], 5.13 µM. The GI50 in assay [7] is 4.58 µM; in assay [8] it was 5.54 µM; in assay [9], 11.1 µM; in assay [10] it was 5.59 µM. The TGI in assay [1] was greater than 100 µM; in assay [2] it was 25.6 µM; in assay [3], 5.94 µM; in assay [4], greater than 100 µM; in assay [5] it was 42.1 µM; in assay [6] it was greater than 100 µM. Further, the TGI in assay [7] was 32.7 µM; in assay [8], 24 µM; in assay [9], 35 µM; in assay [10] it was 32.7 µM.
For the compound `N#CSc1c[nH]c2cccc(/C=C/C(=O)/C=C(O)/C=C/c3cccc4[nH]cc(SC#N)c34)c12`, the GI50 was 0.609 µM in assay [1]; 0.186 µM in [2]; 0.437 µM in [3]; 0.779 µM in assay [4]; 0.496 µM in [5]; 0.46 µM in [6]. Moreover, the GI50 in [7] was 0.351 µM; in assay [8] it was 0.559 µM; in assay [9], 0.495 µM; in assay [10], 0.185 µM. Moreover, the TGI in [1] worked out at 1.56 µM; in assay [2], 0.895 µM; in [3], 1.75 µM; in assay [4], 9.48 µM; in assay [5], 2.05 µM; in [6], 1.58 µM. The TGI in [7] is 0.998 µM; in assay [8], 1.36 µM; in assay [9], 1.15 µM; in [10], 1.14 µM.
Regarding `CC1(C)N=C(N)N=C(N)N1c1cccc(CC(=O)Nc2ccccc2)c1`, the GI50 in assay [1] is greater than 100 µM; in assay [2], greater than 100 µM; in [3], 6 µM; in [4], 11.5 µM; in [5], 2.35 µM; in assay [6] it was 8.48 µM. In addition, the GI50 is 15.1 µM in assay [7], 10.5 µM in [8], 9.15 µM in assay [9] and 4.96 µM in [10]. For the same compound, the TGI is greater than 100 µM in assay [1]; greater than 100 µM in assay [2]; greater than 100 µM in assay [3]; 73.2 µM in assay [4]; greater than 100 µM in assay [5]; greater than 100 µM in assay [6]. Besides, the TGI in assay [7] was greater than 100 µM; in assay [8], greater than 100 µM; in assay [9], 77 µM; in assay [10] it was greater than 100 µM.
For `COc1ccc2c(c1)OCC1c3cc(OC)ccc3OC21` (stereo unspecified), the GI50 in assay [1] was 29.5 µM; in [2], 44.9 µM; in assay [3], 4.93 µM; in assay [4], greater than 100 µM; in assay [5] it was 34.9 µM; in assay [6] it was 49.5 µM. For the same compound, the GI50 in [7] is 43.3 µM; in assay [8] it was 97.7 µM; in assay [9], 91.2 µM; in [10], 58 µM. Moreover, the TGI in assay [1], in assay [2], in assay [3], in [4], in [5] and in assay [6] was greater than 100 µM throughout. The TGI in [7], in assay [8], in assay [9] and in [10] was greater than 100 µM throughout.
For `CC(C)c1c(C(=O)Nc2ccccc2)c(-c2ccccc2)c(-c2ccc(F)cc2)n1CC[C@@H](O)C[C@@H](O)CC(=O)O`, the GI50 in assay [1] was 11.9 µM; in assay [2], 7.69 µM; in assay [3], 20.9 µM; in assay [4], 15.6 µM; in assay [5] it was 50.3 µM; in [6] it was 22.2 µM. The GI50 in assay [7] is 40.2 µM; in assay [8] it was 25.6 µM; in assay [9] it was 18.2 µM; in assay [10], 4.48 µM. In addition, the TGI was 32.8 µM in assay [1]; greater than 100 µM in assay [2]; greater than 96.7 µM in [3]; greater than 100 µM in assay [4]; greater than 100 µM in assay [5]; greater than 100 µM in [6]. The TGI in assay [7], in [8], in assay [9] and in [10] was greater than 100 µM throughout.
Consider `COc1cc(C(=O)N[C@@H]2CCCN(C)C2)ccc1Nc1ncc2c(n1)N(C1CCCC1)CC(C)(C)C(=O)N2C`, for which the GI50 in assay [1] is 0.984 µM; in [2], 0.38 µM; in assay [3], 0.0266 µM; in assay [4] it was 0.188 µM; in [5] it was 0.0363 µM; in assay [6] it was 0.396 µM. For the same compound, the GI50 in assay [7] is 0.0343 µM; in assay [8], 0.203 µM; in [9], 0.153 µM; in [10] it was 0.0465 µM. The TGI in assay [1] is 19.7 µM; in assay [2], 14 µM; in assay [3], 0.0788 µM; in assay [4], 19.9 µM; in assay [5], 6.46 µM; in assay [6], 21.7 µM. The TGI amounted to 18.3 µM in assay [7], 1.69 µM in assay [8], 2.04 µM in assay [9] and 5.48 µM in assay [10].
As for `Nc1ncnc2c1ncn2C1SC(CO)C(O)C1O` (stereo unspecified), the GI50 in [1] is 29.5 µM; in assay [2], 3.81 µM; in assay [3], 30.3 µM; in assay [4], 70.5 µM; in [5], 10.7 µM; in assay [6], greater than 100 µM. Also, the GI50 in [7] is 23 µM; in [8] it was 19.7 µM; in assay [9], 56.5 µM; in assay [10], 27 µM. Further, the TGI in assay [1] was greater than 100 µM; in assay [2] it was 31.8 µM; in [3], 76.2 µM; in assay [4] it was greater than 100 µM; in [5], 42.4 µM; in assay [6] it was greater than 100 µM. The TGI was greater than 100 µM in assay [7], 50.1 µM in assay [8], greater than 100 µM in assay [9] and greater than 100 µM in [10].
Turning to `c1c[nH]c(CN2CCN(Cc3ncc[nH]3)CC2)n1`, the TGI in assay [1], in assay [2], in assay [3], in [4], in [5] and in assay [6] was greater than 100 µM throughout. Further, the TGI in assay [7], in assay [8], in assay [9] and in [10] was greater than 100 µM throughout.
